Source: patent US9023865B2, “Compounds that are ERK inhibitors” (Merck Sharp & Dohme Corp., priority 2011, dated 2015)
Where two headings read alike, the source gives them in different places.

Target: Active Human ERK2 (hERK2) (Homo sapiens (Human), UniProt P28482)
Test: Active Human ERK2 (hERK2) Activity Assay (IMAP-FP)
Type: biochemical
Description: Assays Active Human ERK2 (hERK2) Activity Assay:
Activated ERK2 activity was determined in an IMAP-FP assay (Molecular Devices). […] The final reaction in each well of 25 μL consists of 0.5 nM hERK2, 900 nM unlabeled peptide, 80 nM labeled-peptide, and 30 μM ATP. Phosphorylation reactions were allowed to proceed for 60 minutes and were immediately quenched by the addition of […] IMAP detection beads (1:1000 dilutions) in IMAP binding buffer (Molecular Devices) with 24 mM NaCl. Plates were read on EnVision reader after 60 minutes binding equilibration using Fluorescence Polarization protocol (Perkin Elmer).

[1] = phosphorylated active hERK2, 30 μM ATP, average, read-out: ERK 2 Human average IC50
[2] = read-out: AERK2 IC50 (Active human ERK2 Activity Assay)

Active Human ERK2 (hERK2), sequence (P28482 whole entry): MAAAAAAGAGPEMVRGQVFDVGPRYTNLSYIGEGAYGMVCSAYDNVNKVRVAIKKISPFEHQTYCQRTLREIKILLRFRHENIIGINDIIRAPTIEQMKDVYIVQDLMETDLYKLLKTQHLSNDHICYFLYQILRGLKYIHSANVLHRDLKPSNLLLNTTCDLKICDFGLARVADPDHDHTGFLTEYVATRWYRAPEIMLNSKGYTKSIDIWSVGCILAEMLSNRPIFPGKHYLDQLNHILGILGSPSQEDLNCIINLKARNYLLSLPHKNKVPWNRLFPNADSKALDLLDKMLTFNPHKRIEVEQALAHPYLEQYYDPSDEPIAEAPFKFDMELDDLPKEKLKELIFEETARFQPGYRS

SMILES	IC50 [1]	IC50 [2]
Cc1cc(-c2n[nH]c3cc(NC(=O)NCc4cccc(Cl)c4)ncc23)ccn1 [Example 27, 1-(3-chlorobenzyl)-3-[3-(2-methylpyridin-4-yl)-1H-pyrazolo[4,3-c]pyridin-6-yl]urea]	0.713 nM	0.2 to 1.7 nM
CC(C)Oc1ccc(-c2n[nH]c3cc(NC(=O)N[C@H](C)c4ccccc4)ncc23)cn1 [Example 28, 1-{3-[6-(1-methylethoxy)pyridin-3-yl]-1H-pyrazolo[4,3-c]pyridin-6-yl}-3-[(1R)-1-phenylethyl]urea]	3.63 nM	–
C[C@@H](NC(=O)Nc1cc2[nH]nc(-c3cnn(C)c3)c2cn1)c1ccccc1 [Example 29, 1-[3-(1-methyl-1H-pyrazol-4-yl)-1H-pyrazolo[4,3-c]pyridin-6-yl]-3-[(1R)-1-phenylethyl]urea]	0.334 nM	0.2 to 1.7 nM
C[C@@H](NC(=O)Nc1cc2[nH]nc(-c3ccc(F)cc3)c2cn1)c1ccccc1 [Example 30, 1-[3-(4-fluorophenyl)-1H-pyrazolo[4,3-c]pyridin-6-yl]-3-[(1R)-1-phenylethyl]urea]	0.85 nM	0.2 to 1.7 nM
Cc1cc(-c2n[nH]c3cc(NC(=O)N[C@H](C)c4ccccc4)ncc23)cc(C)n1 [Example 31, 1-[3-(2,6-dimethylpyridin-4-yl)-1H-pyrazolo[4,3-c]pyridin-6-yl]-3-[(1R)-1-phenylethyl]urea]	0.29 nM	0.2 to 1.7 nM
Cc1cc(-c2n[nH]c3cc(NC(=O)NCc4cccc5ccccc45)ncc23)ccn1 [Example 32, 1-[3-(2-methylpyridin-4-yl)-1H-pyrazolo[4,3-c]pyridin-6-yl]-3-(naphthalen-1-ylmethyl)urea]	3.92 nM	–
COc1ccc(CNC(=O)Nc2cc3[nH]nc(-c4ccc(F)cc4)c3cn2)cc1OC [Example 33, 1-(3,4-dimethoxybenzyl)-3-(3-(4-fluorophenyl)-1H-pyrazolo[4,3-c]pyridin-6-yl)urea]	15.2 nM	–
NC(=O)Nc1cc2[nH]nc(-c3ccc(F)cc3)c2cn1 [Example 34, 1-(3-(4-fluorophenyl)-1H-pyrazolo[4,3-c]pyridin-6-yl)urea]	1.68 nM	0.2 to 1.7 nM
Cc1cc(-c2n[nH]c3cc(NC(=O)NCC4CC4)ncc23)ccn1 [Example 35, 1-(cyclopropylmethyl)-3-[3-(2-methylpyridin-4-yl)-1H-pyrazolo[4,3-c]pyridin-6-yl]urea]	2.1 nM	–
Cc1cc(-c2n[nH]c3cc(NC(=O)NC(C)(C)C)ncc23)ccn1 [Example 36, 1-tert-butyl-3-[3-(2-methylpyridin-4-yl)-1H-pyrazolo[4,3-c]pyridin-6-yl]urea]	32.6 nM	–
Cc1cc(-c2n[nH]c3cc(NC(=O)NCC4(O)CC4)ncc23)ccn1 [Example 37]	9.9 nM	–
Cc1cc(-c2n[nH]c3cc(NC(=O)NC=C4CC4)ncc23)ccn1 [Example 38, 1-(cyclopropylidenemethyl)-3-[3-(2-methylpyridin-4-yl)-1H-pyrazolo[4,3-c]pyridin-6-yl]urea]	481 nM	–
Cc1cc(-c2n[nH]c3cc(NC(=O)NC4CNC4)ncc23)ccn1 [Example 39, 1-azetidin-3-yl-3-[3-(2-methylpyridin-4-yl)-1H-pyrazolo[4,3-c]pyridin-6-yl]urea]	60.3 nM	–
COCCNC(=O)Nc1cc2[nH]nc(-c3ccnc(C)c3)c2cn1 [Example 40, 1-(2-methoxyethyl)-3-[3-(2-methylpyridin-4-yl)-1H-pyrazolo[4,3-c]pyridin-6-yl]urea]	2.9 nM	–
Cc1cc(-c2n[nH]c3cc(NC(=O)NC(C4CC4)C(F)(F)F)ncc23)ccn1 (stereo not shown) [Example 41, 1-(1-cyclopropyl-2,2,2-trifluoroethyl)-3-[3-(2-methylpyridin-4-yl)-1H-pyrazolo[4,3-c]pyridin-6-yl]urea]	4.48 nM	–
Cc1cc(-c2n[nH]c3cc(NC(=O)NCc4csc(C)n4)ncc23)ccn1 [Example 43, 1-[3-(2-methylpyridin-4-yl)-1H-pyrazolo[4,3-c]pyridin-6-yl]-3-[(2-methyl-1,3-thiazol-4-yl)methyl]urea]	0.934 nM	0.2 to 1.7 nM
